{"source": "ChEMBL document CHEMBL1141350", "about": "“Pentaketides relating to aspinonene and dihydroaspyrone from a marine-derived fungus, Aspergillus ostianus” (2007)", "key": {"[1]": {"tested_on": "Staphylococcus aureus", "assay": "Antibacterial activity against methicillin-resistant Staphylococcus aureus at 100 ug/disc", "type": "functional, organism-based"}, "[2]": {"tested_on": "L1210", "assay": "Cytotoxicity against mouse L1210 cells at 25 ppm", "type": "functional"}}, "note": "Calls of active or inactive are those of the source. No cut-off for these calls is given here.", "data": [{"molecule": "C[C@H](O)CC1=C[C@H](O)[C@@H](C)OC1=O", "values": [{"measurement": "Activity", "setting": "[1]", "value": "inactive"}]}, {"molecule": "C[C@H](O)/C=C(/C=C/[C@@H](C)O)CO", "values": [{"measurement": "Activity", "setting": "[2]", "value": "inactive"}, {"measurement": "Activity", "setting": "[1]", "value": "inactive"}]}, {"molecule": "CC(=O)/C=C/C(=C/[C@H](C)O)CO", "values": [{"measurement": "Activity", "setting": "[1]", "value": "inactive"}]}, {"molecule": "C[C@H](O)/C=C/[C@@](O)(CO)[C@@H]1O[C@H]1C", "note": "[ASPINONENE]", "values": [{"measurement": "inhibition at 25 ppm", "setting": "[2]", "value": 27, "unit": "%"}, {"measurement": "Activity", "setting": "[1]", "value": "inactive"}]}, {"molecule": "C[C@H](O)/C=C(/C=C/[C@H](C)O)CO", "values": [{"measurement": "Activity", "setting": "[1]", "value": "inactive"}]}, {"molecule": "CO[C@](C(=O)O[C@@H](C)CC1=C[C@H](O)[C@@H](C)OC1=O)(c1ccccc1)C(F)(F)F", "values": [{"measurement": "inhibition at 25 ppm", "setting": "[2]", "value": 25, "unit": "%"}]}]}
